# Data published in ChEMBL document CHEMBL1143609, “Conformationally restricted analogues of psorospermin: design, synthesis, and bioactivity of natural-product-related bisfuranoxanthones” (J Med Chem, 2005).
# Experiments:
# Format in all cases: functional, cell-based
# Conditions in all cases: Homo sapiens
# MIA PaCa-2 = assay: Inhibitory concentration against MIA PaCa cell line
# HepG2 = assay: Inhibitory concentration against HepG2 cell line
# COLO 320 = assay: Inhibitory concentration against COLO 320 cell line
# NCI-H522 = assay: Inhibitory concentration against H522 cell line
# HeLa = assay: Inhibitory concentration against HeLa cell line
# HT-29 = assay: Inhibitory concentration against HT-29 cell line
Compound,IC50 (MIA PaCa-2),IC50 (HepG2),IC50 (COLO 320),IC50 (NCI-H522),IC50 (HeLa),IC50 (HT-29)
COc1cccc2c(=O)c3c(O)cc4c(c3oc12)[C@@H]1OC[C@]2(CO2)[C@@H]1O4,10.9 µM,13.1 µM,9.19 µM,19.4 µM,32.5 µM,> 30 µM
COc1cc2c(c3oc4c(O)cccc4c(=O)c13)C[C@H]([C@@]1(C)CO1)O2 [PSOROSPERMIN],0.21 µM,0.38 µM,0.069 µM,0.45 µM,0.71 µM,0.64 µM
COc1cccc2c(=O)c3c(O)cc4c(c3oc12)C[C@H]([C@](C)(O)CO)O4,> 30 µM,> 30 µM,> 30 µM,> 30 µM,> 30 µM,> 30 µM
COc1cccc2c(=O)c3c(O)cc4c(c3oc12)C[C@H]([C@@](C)(O)CO)O4,23.8 µM,> 30 µM,19.2 µM,28.4 µM,> 30 µM,> 30 µM
C=C1CO[C@H]2c3c(cc(O)c4c(=O)c5cccc(OC)c5oc34)O[C@@H]12,> 30 µM,> 30 µM,> 30 µM,> 30 µM,> 30 µM,> 30 µM

# More lines, now with the values ahead:
IC50 (MIA PaCa-2),IC50 (HepG2),IC50 (COLO 320),IC50 (NCI-H522),IC50 (HeLa),IC50 (HT-29),Compound
12.3 µM,> 30 µM,12.3 µM,20 µM,19 µM,36.7 µM,COc1cccc2c(=O)c3c(O)cc4c(c3oc12)[C@@H]1OC[C@](O)(CO)[C@@H]1O4
> 30 µM,> 30 µM,> 30 µM,> 30 µM,23.5 µM,> 30 µM,COc1cccc2c(=O)c3c(O)c4c(cc3oc12)O[C@@H]1[C@H]4OC[C@]1(C)O
> 30 µM,> 30 µM,> 30 µM,> 30 µM,23.5 µM,> 30 µM,COc1cccc2c(=O)c3c(O)c4c(cc3oc12)O[C@@H]1[C@H]4OC[C@@]1(C)O
3.76 µM,> 30 µM,0.9 µM,7.14 µM,7.5 µM,7.13 µM,COc1cccc2c(=O)c3c(O)cc4c(c3oc12)[C@@H]1OC[C@](O)(CCl)[C@@H]1O4
